Columns and labels:
[1] = Metabolic stability in human liver microsomes; type: in vitro ADME; conditions: for stability in human liver microsomes: 30 minute incubation
Method: (§1) Human liver microsomes (20 mg/mL) and rat liver microsomes (20 mg/mL) were obtained from Xenotech, LLC (Lenexa, Kans.). β-nicotinamide adenine dinucleotide phosphate, reduced form (NADPH), magnesium chloride (MgCl2), and dimethyl sulfoxide (DMSO) were purchased from Sigma-Aldrich. 7.5 mM stock solutions of test compounds (L-838417, Compound 101, Compound 103, Compound 104 and Compound 105) were prepared in DMSO. The 7.5 mM stock solutions were diluted to 12.5 μM in acetonitrile (ACN). The 20 mg/mL […] were diluted to […] in 0.1 M potassium phosphate buffer, pH 7.4, containing 3 mM MgCl2. The diluted microsomes (375 μL) were added to wells of a 96-well deep-well polypropylene plate in triplicate. 10 μL of the 12.5 μM test compound was added to the microsomes and the mixture was pre-warmed for 10 minutes. Reactions were initiated by addition of 125 μL pre-warmed NADPH solution. The final reaction volume is 0.5 mL and contained 0.5 mg/mL human liver microsomes, 0.25 μM test compound, and 2 mM NADPH in 0.1 M potassium phosphate buffer, pH 7.4, and 3 mM MgCl2. The reaction mixtures are incubated at 37° C., and 50 μL aliquots were removed at 0, 5, 10, 20, and 30 minutes and added to shallow-well 96-well plates which contained 50 μL of ice-cold ACN with internal standard to stop the reactions. The plates were stored at 4° C. for 20 minutes after which 100 μL of water was added to the wells of the plate before centrifugation to pellet precipitated proteins. Supernatants were transferred to another 96-well plate and analyzed for amounts of parent remaining by LC-MS/MS using an Applied Bio-systems API 4000 mass spectrometer. 7-ethoxycoumarin (1 μM) was used as a positive control. The in vitro t1/2s for test compounds were calculated from the slopes of the linear regression of % parent remaining (ln) vs incubation time relationship, using the formula: in vitro t1/2=0.693/k, where k=−[slope of linear regression of % parent remaining(ln) vs incubation time] Data analysis is performed using Microsoft Excel Software.

[2] = Metabolic stability in rat liver microsomes; type: in vitro ADME; conditions: for parent compound remained intact / stability in rat microsomes: 30 minutes incubation; for half-life at 0.25 µM: pH 7.4, calculated from slope of ln % parent remaining vs time, read-out: in vitro half-life
Method: as §1

[3] = Pharmacokinetics after intravenous administration to rats; type: in vivo, Sprague-Dawley rats; conditions: for clearance / half-life / AUC(0-t): rat, plasma, 1 mg/kg each as 1:1:1 mixture, male Sprague-Dawley rats; for AUC(0-t): read-out: AUC0-6; for AUC0-6 % Change over L-838417 / AUC0-6 relative to undeuterated L-838417 / CL % Change over L-838417 / cleared more slowly than L-838417 / longer half-life than undeuterated L-838417 / t1/2 % Change over L-838417: rats
Method: (§2) Three male Sprague-Dawley rats (200-250 g each) were cannulated in the jugular vein and were administered a single dose containing 1 mg/kg each of L-838417, Compound 103 and Compound 105 (as a 1:1:1 mixture containing 1 mg/mL of each of the three compounds in 10% dimethyl sulfoxide (DMSO), 10% N,N-dimethylacetamide (DMA), and 60% polyethylene glycol (PG) through the jugular cannula. Three additional male Sprague-Dawley rats (200-250 g each) were administered a single dose containing 1 mg/kg each of L-838417, Compound 103 and Compound 105 (as a 1:1:1 mixture containing 1 mg/mL of each of the three compounds in 10% dimethyl sulfoxide (DMSO), 10% N,N-dimethylacetamide (DMA), and 60% polyethylene glycol (PG) by oral gavage. Blood (0.25 mL) from intravenously treated test rats was collected retro-orbitally at 2, 5, 15, and 30 minutes, and 1, 2, 4, and 6 hours post-dosing. Blood (0.25 mL) from orally treated test rats was collected retro-orbitally at 5, 15, 30, and 45 minutes, and 1, 2, 4, and 6 hours post-dosing. Blood was collected into tubes containing K2EDTA as anticoagulant at the above mentioned time points. Blood samples were stored on ice and then centrifuged to obtain plasma. The plasma (˜[…]) was aliquoted into deep 96-well plates and stored at −80° C. until analysis by LC-MS/MS using an Applied Bio-systems API 4000 mass spectrometer.

[4] = Pharmacokinetics after oral administration to rats; type: in vivo, Sprague-Dawley rats; conditions: for AUC0-6 % Change over L-838417 / AUC0-6 relative to undeuterated L-838417 / Cmax % Change over L-838417 / Cmax relative to L-838417: oral, rats; for Cmax / AUC(0-t): rat, plasma, oral gavage, 1 mg/kg each as 1:1:1 mixture, male Sprague-Dawley rats; for AUC(0-t): read-out: AUC0-6
Method: as §2

Structure (SMILES) | stability in human liver microsomes [1] | parent compound remained intact [2] | half-life at 0.25 µM [2] [min] | stability in rat microsomes [2] | clearance [3] [mL/min/kg] | half-life [3] [min] | AUC(0-t) [3] [ng·h/mL] | AUC0-6 % Change over L-838417 [3] | AUC0-6 relative to undeuterated L-838417 [3] | CL % Change over L-838417 [3] [%] | cleared more slowly than L-838417 [3] | longer half-life than undeuterated L-838417 [3] | t1/2 % Change over L-838417 [3] | AUC0-6 % Change over L-838417 [4] | AUC0-6 relative to undeuterated L-838417 [4] | Cmax % Change over L-838417 [4] | Cmax relative to L-838417 [4] | Cmax [4] [ng/mL] | AUC(0-t) [4] [ng·h/mL] | other results
[2H]C([2H])(Oc1nn2c(-c3cc(F)ccc3F)nnc2cc1C(C)(C)C)c1ncnn1C([2H])([2H])[2H] [Compound 101, 7-tert-Butyl-3-(2,5-difluorophenyl)-6-((1-(methyl-d3)-1H-1,2,4-triazol-5-yl)-1,1-d2-methoxy)-[1,2,4]triazolo[4,3-b]pyridazine] | stable | approximately 70% | 52.7 |  |  |  |  |  |  |  |  |  |  |  |  |  |  |  |  | 
[2H]C([2H])([2H])C(c1cc2nnc(-c3cc(F)ccc3F)n2nc1OCc1ncnn1C)(C([2H])([2H])[2H])C([2H])([2H])[2H] [Compound 103, 7-(tert-Butyl-d9)-3-(2,5-difluorophenyl)-6-((1-methyl-1H-1,2,4-triazol-5-yl)methoxy)-[1,2,4]triazolo[4,3-b]pyridazine] | stable |  |  | stable | 8 | 75 ± 8.4 | 1920 ± 200 | +131% | greater than two-fold higher | −62 | approximately 60% | approximately 80% | +79% | +156% | greater than two and a half-fold higher | +116% | greater than two-fold higher | 277 ± 76 | 1260 ± 289 | 
Cn1ncnc1COc1nn2c(-c3cc(F)ccc3F)nnc2cc1C(C)(C)C [Compound L-838417, 7-tert-butyl-3-(2,5-difluorophenyl)-6-(1-methyl-1H-1,2,4-triazol-5-ylmethoxy)[1,2,4]triazolo[4,3-b]pyridazine, reference compound] |  | approximately 70% | 50.5 |  | 18.3 | 42 ± 2.4 | 831 ± 86 |  |  |  |  |  |  |  |  |  |  | 128 ± 40 | 491 ± 95 | parent compound remained intact ([1]; 30 minutes incubation, 0.25 μM test compound, 37° C.): approximately 70%; half-life at 0.25 µM ([1]; pH 7.4, calculated from slope of ln % parent remaining vs time, read-out: in vitro half life): 54.4 min
[2H]C([2H])(Oc1nn2c(-c3cc(F)ccc3F)nnc2cc1C(C([2H])([2H])[2H])(C([2H])([2H])[2H])C([2H])([2H])[2H])c1ncnn1C([2H])([2H])[2H] [Compound 105, 7-(tert-Butyl-d9)-3-(2,5-difluorophenyl)-6-((1-(methyl-d3)-1H-1,2,4-triazol-5-yl)-1,1-d2-methoxy)-[1,2,4]triazolo[4,3-b]pyridazine] | stable |  |  | stable | 7.67 | 76.2 ± 8.4 | 1960 ± 190 | +136% | greater than two-fold higher | −60 | approximately 60% | approximately 80% | +81% | +154% | greater than two and a half-fold higher | +119% | greater than two-fold higher | 280 ± 80 | 1250 ± 272 | 
[2H]C([2H])([2H])n1ncnc1COc1nn2c(-c3cc(F)ccc3F)nnc2cc1C(C([2H])([2H])[2H])(C([2H])([2H])[2H])C([2H])([2H])[2H] [Compound 104, 7-(tert-Butyl-d9)-3-(2,5-difluorophenyl)-6-((1-(methyl-d3)-1H-1,2,4-triazol-5-yl)-methoxy)-[1,2,4]triazolo[4,3-b]pyridazine] | stable |  |  | stable |  |  |  |  |  |  |  |  |  |  |  |  |  |  |  | 
